Values of other authors as cited in PMC5560747, “Computational-experimental approach to drug-target interaction mapping: A case study on kinase inhibitors” (PLoS Computational Biology, 2017).

Experiments:
Parameters in all cases: method as in Gao et al. [42]
IKKb = settings: ref Gao et al. [42], cited from earlier work
LIMK1 = settings: ref Gao et al. [42], cited from earlier work
CSNK1G1 = settings: ref Gao et al. [42], cited from earlier work
CHK1 = settings: ref Gao et al. [42], cited from earlier work
Aurora B = settings: ref Gao et al. [42], cited from earlier work
TSSK1B = settings: ref Gao et al. [42], cited from earlier work
ROCK1 = settings: ref Gao et al. [42], cited from earlier work
FAK = FAK (Homo sapiens, UniProt Q05397); settings: ref Gao et al. [42]; cited from earlier work
FAK, sequence (Q05397 whole entry): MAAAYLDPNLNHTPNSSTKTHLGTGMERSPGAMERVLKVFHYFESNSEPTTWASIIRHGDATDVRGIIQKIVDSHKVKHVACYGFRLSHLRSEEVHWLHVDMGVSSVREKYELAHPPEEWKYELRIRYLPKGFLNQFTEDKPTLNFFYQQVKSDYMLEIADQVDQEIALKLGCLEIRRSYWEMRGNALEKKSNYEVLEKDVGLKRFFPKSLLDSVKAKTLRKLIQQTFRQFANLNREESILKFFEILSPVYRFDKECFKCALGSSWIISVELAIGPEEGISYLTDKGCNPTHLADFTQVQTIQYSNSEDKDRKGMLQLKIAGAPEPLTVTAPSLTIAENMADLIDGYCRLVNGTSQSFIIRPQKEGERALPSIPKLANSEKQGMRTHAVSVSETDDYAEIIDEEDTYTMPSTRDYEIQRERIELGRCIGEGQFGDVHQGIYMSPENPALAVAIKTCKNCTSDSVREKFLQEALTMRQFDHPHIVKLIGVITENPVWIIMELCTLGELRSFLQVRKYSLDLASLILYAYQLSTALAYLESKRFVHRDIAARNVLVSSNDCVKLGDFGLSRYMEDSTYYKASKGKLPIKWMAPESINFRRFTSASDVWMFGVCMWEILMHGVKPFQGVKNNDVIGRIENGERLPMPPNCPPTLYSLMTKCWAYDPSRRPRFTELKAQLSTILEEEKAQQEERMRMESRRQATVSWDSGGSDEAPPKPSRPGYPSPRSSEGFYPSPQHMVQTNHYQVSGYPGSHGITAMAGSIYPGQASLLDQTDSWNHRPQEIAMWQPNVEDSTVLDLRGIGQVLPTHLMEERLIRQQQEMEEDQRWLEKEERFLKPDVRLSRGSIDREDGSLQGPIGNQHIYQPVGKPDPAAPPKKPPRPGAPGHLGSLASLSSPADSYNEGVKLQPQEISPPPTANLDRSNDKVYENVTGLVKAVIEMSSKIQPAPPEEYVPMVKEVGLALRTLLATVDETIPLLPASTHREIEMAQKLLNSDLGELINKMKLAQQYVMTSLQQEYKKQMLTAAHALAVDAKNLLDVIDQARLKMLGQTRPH

AXL = target: T1, AXL (Homo sapiens, UniProt P30530); settings: ref Gao et al. [42], cited from earlier work
T1 sequence (P30530 26-894): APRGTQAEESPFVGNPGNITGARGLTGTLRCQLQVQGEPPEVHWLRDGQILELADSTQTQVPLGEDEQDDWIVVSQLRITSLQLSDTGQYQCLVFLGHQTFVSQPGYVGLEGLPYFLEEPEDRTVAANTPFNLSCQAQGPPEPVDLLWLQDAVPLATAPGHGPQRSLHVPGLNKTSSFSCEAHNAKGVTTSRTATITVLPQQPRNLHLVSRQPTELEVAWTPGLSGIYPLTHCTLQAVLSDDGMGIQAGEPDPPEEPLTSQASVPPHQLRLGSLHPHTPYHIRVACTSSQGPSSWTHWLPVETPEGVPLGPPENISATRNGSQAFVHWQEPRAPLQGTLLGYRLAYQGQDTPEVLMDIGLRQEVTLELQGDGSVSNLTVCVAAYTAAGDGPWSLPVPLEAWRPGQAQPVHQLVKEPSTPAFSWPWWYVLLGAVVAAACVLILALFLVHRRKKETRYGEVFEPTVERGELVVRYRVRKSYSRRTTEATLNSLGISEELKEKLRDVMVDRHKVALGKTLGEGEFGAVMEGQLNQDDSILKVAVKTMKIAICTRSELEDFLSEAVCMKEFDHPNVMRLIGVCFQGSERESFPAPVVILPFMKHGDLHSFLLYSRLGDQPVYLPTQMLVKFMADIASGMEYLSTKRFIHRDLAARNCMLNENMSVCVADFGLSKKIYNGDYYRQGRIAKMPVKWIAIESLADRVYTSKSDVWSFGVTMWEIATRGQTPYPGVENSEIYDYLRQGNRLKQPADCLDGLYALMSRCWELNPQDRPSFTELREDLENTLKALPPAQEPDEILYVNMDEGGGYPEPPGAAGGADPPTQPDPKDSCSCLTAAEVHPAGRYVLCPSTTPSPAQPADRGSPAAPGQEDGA

PKCa = settings: ref Gao et al. [42], cited from earlier work
SYK = SYK (Homo sapiens, UniProt P43405); settings: ref Gao et al. [42]; cited from earlier work
PLK1 = settings: ref Gao et al. [42]; cited from earlier work
TAOK1 = settings: ref Gao et al. [42], cited from earlier work
CAMK2D = settings: ref Gao et al. [42], cited from earlier work
DAPK3 = settings: ref Gao et al. [42], cited from earlier work
EEF2K = settings: ref Gao et al. [42], cited from earlier work
JAK3 = JAK3 (Homo sapiens, UniProt P52333); settings: ref Gao et al. [42], cited from earlier work
JAK3, sequence (P52333 whole entry): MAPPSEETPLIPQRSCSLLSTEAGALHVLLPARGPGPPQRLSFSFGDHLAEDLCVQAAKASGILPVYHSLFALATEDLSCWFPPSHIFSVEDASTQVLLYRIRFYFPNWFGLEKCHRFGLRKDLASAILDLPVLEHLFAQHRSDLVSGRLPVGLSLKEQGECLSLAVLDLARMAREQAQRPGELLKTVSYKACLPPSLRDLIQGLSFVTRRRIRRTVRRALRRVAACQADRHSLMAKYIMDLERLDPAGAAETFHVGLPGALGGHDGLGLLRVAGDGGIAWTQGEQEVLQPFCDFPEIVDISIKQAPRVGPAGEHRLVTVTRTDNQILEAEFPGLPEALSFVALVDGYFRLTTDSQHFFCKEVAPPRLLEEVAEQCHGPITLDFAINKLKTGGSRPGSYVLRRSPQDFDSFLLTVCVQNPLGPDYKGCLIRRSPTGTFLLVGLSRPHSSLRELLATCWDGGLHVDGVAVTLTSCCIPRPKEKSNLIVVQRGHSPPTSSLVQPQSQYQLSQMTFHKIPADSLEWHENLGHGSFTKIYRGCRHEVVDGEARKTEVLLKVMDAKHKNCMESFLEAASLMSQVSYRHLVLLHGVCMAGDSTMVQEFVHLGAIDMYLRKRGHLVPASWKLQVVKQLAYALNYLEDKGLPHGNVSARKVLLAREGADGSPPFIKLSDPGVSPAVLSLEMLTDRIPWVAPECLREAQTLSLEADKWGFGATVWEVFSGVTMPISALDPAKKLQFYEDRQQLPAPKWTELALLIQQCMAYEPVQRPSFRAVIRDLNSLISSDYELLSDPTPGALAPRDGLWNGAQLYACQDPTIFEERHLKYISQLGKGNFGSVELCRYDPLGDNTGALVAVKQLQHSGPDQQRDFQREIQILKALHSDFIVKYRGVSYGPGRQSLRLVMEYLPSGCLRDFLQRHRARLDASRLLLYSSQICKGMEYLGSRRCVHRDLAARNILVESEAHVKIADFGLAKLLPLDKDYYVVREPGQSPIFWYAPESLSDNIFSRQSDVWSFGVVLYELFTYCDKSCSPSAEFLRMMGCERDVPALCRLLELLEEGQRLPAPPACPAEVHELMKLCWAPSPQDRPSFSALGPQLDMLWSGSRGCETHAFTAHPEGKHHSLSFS

BTK = BTK (Homo sapiens, UniProt Q06187); settings: ref Gao et al. [42], cited from earlier work
BTK, sequence (Q06187 whole entry): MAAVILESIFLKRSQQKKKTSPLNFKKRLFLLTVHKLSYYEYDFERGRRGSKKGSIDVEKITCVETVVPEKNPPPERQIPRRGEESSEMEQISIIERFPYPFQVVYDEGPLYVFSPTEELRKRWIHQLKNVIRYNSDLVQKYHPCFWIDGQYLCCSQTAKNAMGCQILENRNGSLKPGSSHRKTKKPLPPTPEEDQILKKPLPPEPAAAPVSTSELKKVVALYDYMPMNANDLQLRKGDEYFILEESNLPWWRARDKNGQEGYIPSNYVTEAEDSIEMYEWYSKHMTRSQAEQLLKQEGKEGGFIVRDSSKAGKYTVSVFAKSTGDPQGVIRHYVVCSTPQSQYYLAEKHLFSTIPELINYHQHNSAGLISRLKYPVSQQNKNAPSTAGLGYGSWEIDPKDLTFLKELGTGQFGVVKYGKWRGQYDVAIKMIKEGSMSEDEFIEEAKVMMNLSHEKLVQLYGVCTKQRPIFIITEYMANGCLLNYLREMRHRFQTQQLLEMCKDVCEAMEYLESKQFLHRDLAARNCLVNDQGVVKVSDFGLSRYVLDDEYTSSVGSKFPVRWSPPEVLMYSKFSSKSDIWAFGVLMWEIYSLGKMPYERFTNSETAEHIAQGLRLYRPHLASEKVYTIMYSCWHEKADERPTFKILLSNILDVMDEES

STK24 = settings: ref Gao et al. [42], cited from earlier work
PIM2 = settings: ref Gao et al. [42], cited from earlier work
ERK2 = settings: ref Gao et al. [42], cited from earlier work
CLK2 = settings: ref Gao et al. [42], cited from earlier work

COc1cc2nccc(Oc3ccc(NC(=O)Nc4cc(C)on4)c(Cl)c3)c2cc1OC [TIVOZANIB, Tivozanib]
Gao et al. % of activity remaining at 1 µM (IKKb; 1 µM): 104%
Gao et al. % of activity remaining at 10 µM (IKKb; 10 µM): 102%
Gao et al. % of activity remaining at 1 µM (LIMK1; 1 µM): 67%
Gao et al. % of activity remaining at 10 µM (LIMK1; 10 µM): 14%
Gao et al. % of activity remaining at 1 µM (CSNK1G1; 1 µM): 89%
Gao et al. % of activity remaining at 10 µM (CSNK1G1; 10 µM): 57%
Gao et al. % of activity remaining at 1 µM (CHK1; 1 µM): 89%
Gao et al. % of activity remaining at 10 µM (CHK1; 10 µM): 100%
Gao et al. % of activity remaining at 1 µM (Aurora B; 1 µM): 3%
Gao et al. % of activity remaining at 10 µM (Aurora B; 10 µM): 1%
Gao et al. % of activity remaining at 1 µM (TSSK1B; 1 µM): 94%
Gao et al. % of activity remaining at 10 µM (TSSK1B; 10 µM): 82%
Gao et al. % of activity remaining at 1 µM (ROCK1; 1 µM): 113%
Gao et al. % of activity remaining at 10 µM (ROCK1; 10 µM): 112%
Gao et al. % of activity remaining at 10 µM (FAK): 35%
Gao et al. % of activity remaining at 1 µM (AXL; 1 µM): 12%
Gao et al. % of activity remaining at 10 µM (AXL; 10 µM): 10%
Gao et al. % of activity remaining at 1 µM (PKCa; 1 µM): 108%
Gao et al. % of activity remaining at 10 µM (PKCa; 10 µM): 101%
Gao et al. % of activity remaining at 10 µM (SYK): 73%
Gao et al. % of activity remaining at 10 µM (PLK1): 75%
Gao et al. % of activity remaining at 1 µM (TAOK1; 1 µM): 91%
Gao et al. % of activity remaining at 10 µM (TAOK1; 10 µM): 52%
Gao et al. % of activity remaining at 1 µM (CAMK2D; 1 µM): 102%
Gao et al. % of activity remaining at 10 µM (CAMK2D; 10 µM): 90%
Gao et al. % of activity remaining at 1 µM (DAPK3; 1 µM): 82%
Gao et al. % of activity remaining at 10 µM (DAPK3; 10 µM): 90%
Gao et al. % of activity remaining at 1 µM (EEF2K; 1 µM): 84%
Gao et al. % of activity remaining at 10 µM (EEF2K; 10 µM): 116%
Gao et al. % of activity remaining at 1 µM (JAK3; 1 µM): 100%
Gao et al. % of activity remaining at 10 µM (JAK3; 10 µM): 48%
Gao et al. % of activity remaining at 1 µM (BTK; 1 µM): 50%
Gao et al. % of activity remaining at 10 µM (BTK; 10 µM): 10%
Gao et al. % of activity remaining at 1 µM (STK24; 1 µM): 118%
Gao et al. % of activity remaining at 10 µM (STK24; 10 µM): 78%
Gao et al. % of activity remaining at 1 µM (PIM2; 1 µM): 114%
Gao et al. % of activity remaining at 10 µM (PIM2; 10 µM): 103%
Gao et al. % of activity remaining at 1 µM (ERK2; 1 µM): 103%
Gao et al. % of activity remaining at 10 µM (ERK2; 10 µM): 104%
Gao et al. % of activity remaining at 1 µM (CLK2; 1 µM): 114%
Gao et al. % of activity remaining at 10 µM (CLK2; 10 µM): 99%
